Experiments:
MCF-7 = test: Cytotoxicity of AGM-330-CPP fusion peptides; type: cell-based, Human; settings: MCF-7, fusion peptide alone, Example 11
HCT-116 = test: Cytotoxicity of AGM-330-CPP fusion peptides; type: cell-based, Human; settings: HCT-116, fusion peptide alone, Example 11
MDA-MB-231-luc cells = test: Tumor suppression in breast cancer xenograft model; type: in vivo, NPG mice
Description: FIG. 14B is a schematic representation of the experimental protocol. Here, anesthetized 6-week-old […] NPG mice were inoculated with a 1:1 mix of Matrigel and 1×10^6 MDA-MB-231-luc cells into the mammary fat pad. […] Nuclei were stained with DAPI (blue), and the scale bar is 50 μm. Bar graphs represent the mean±SD, and statistical analyses were performed by one-way ANOVA with Dunnett's multiple comparison. *, **, and *** indicate P<0.05, P<0.01, and P<0.001, respectively. […]
All animal experiments were performed in accordance with IACUC guidelines (GIST-2019-040). For tumorigenesis experiments, anesthetized 6-week-old female NOD-scid Il2rg^−/− mice (NPG™, VITALSTAR) were inoculated in the mammary fat pad with 1×10^6 MDA-MB-231-luc cells in a volume of 100 μl (n=5˜6 for each group). After tumor cell inoculation, when the tumor volume reached approximately 100 mm^3, the mice were randomly divided into the following five groups: (i) control, (ii) low-dose paclitaxel (2 mg/kg), (iii) high-dose paclitaxel (10 mg/kg), (iv) AGM-330 (16.68 mg/kg or 8.34 mg/kg), and (v) AGM-330-PTX (19.05 mg/kg or 10.71 mg/kg). The tumor size was measured twice a week, and the tumor volume was calculated with the following formula:
For the bioluminescent imaging experiment, D-luciferin (150 mg/kg; PerkinElmer) was intraperitoneally injected into each mouse, and an IVIS 100 imaging system (Xenogen, Corporation, Alameda, CA) was used for bioluminescent monitoring. Mice were anesthetized with vaporized isoflurane (BK Pharm, Ilsan, Korea) and placed in an imaging chamber. After 10 min, each animal was imaged with an exposure time of 1 min. All bioluminescent image data were provided by Living Image software (version 4.5.2, PerkinElmer). Photons detected from tumors were converted to average radiance values (photon/see/cm^2/sr), which are quantitative data obtained from a region of intensity (ROI) and include the photons emitted by bioluminescent cells from an assigned rectangular area over the whole body of each mouse.
Following in vitro proliferation analysis on cancer lines, the present inventors investigated whether AGM-330t-PTX could be a potential therapeutic agent in vivo. The present inventors inoculated MDA-MB-231-luc cells into the mammary fat pad of NPG mice. After the subcutaneous tumors grew to 100 mm^3, comparative efficacy studies were performed by dividing the animals into five groups (n=5/group) treated with vehicle (PBS), AGM-330t (16.68 mg/kg), PTX (2 or 10 mg/kg, respectively) or AGM-330t-PTX (19.05 mg/kg) twice a week by tail vein injection (FIG. 14B). Tumor growth was monitored by measuring volumes twice a week with a caliber rule over the course of 3 weeks.
The present inventors also performed histological staining of the excised tumors, and an independent pathologist evaluated the slides.

[1] = Body weight and serum blood chemistry in xenograft mice

SMILES	IC50 (MCF-7)	IC50 (HCT-116)	average tumor volume (MDA-MB-231-luc cells; 19.05 mg/kg twice a week, tail vein, n=5)	decrease of average tumor volume with respect to the same dose PTX (MDA-MB-231-luc cells; 19.05 mg/kg vs PTX 2 mg/kg)	final average tumor weight (MDA-MB-231-luc cells; 19.05 mg/kg, n=5)	apoptotic cell nuclei in excised tumors (TUNEL) (MDA-MB-231-luc cells; mouse, in vivo)	number of cancerous cells in excised tumors (H&E staining, Ki-67) (MDA-MB-231-luc cells; mouse, in vivo)	mouse body weights compared to vehicle (PBS) administration ([1]; AGM-330t-PTX 19.05 mg/kg, 3 weeks)	blood chemistry analysis (ALB, GOT, GPT, TP-PS, UA) ([1]; serum of xenografted mice)
CC[C@H](C)[C@H](NC(=O)[C@H](CCCNC(=N)N)NC(=O)[C@H](CC(C)C)NC(=O)[C@@H](NC(=O)[C@H](CCCNC(=N)N)NC(=O)[C@H](CCSC)NC(=O)[C@@H](NC(=O)[C@@H](N)CCCNC(=N)N)[C@@H](C)CC)[C@@H](C)CC)C(=O)N[C@@H](CC(C)C)C(=O)N[C@@H](CCCCN)C(=O)N[C@@H](CC(C)C)C(=O)N[C@@H](C)C(=O)N[C@@H](CCCNC(=N)N)C(=O)NCCCC[C@H](NC(=O)[C@H](CCCNC(=N)N)NC(=O)[C@H](C)NC(=O)[C@H](CC(C)C)NC(=O)[C@H](CCCCN)NC(=O)[C@H](CC(C)C)NC(=O)[C@@H](NC(=O)[C@H](CCCNC(=N)N)NC(=O)[C@H](CC(C)C)NC(=O)[C@@H](NC(=O)[C@H](CCCNC(=N)N)NC(=O)[C@H](CCSC)NC(=O)[C@@H](NC(=O)[C@@H](N)CCCNC(=N)N)[C@@H](C)CC)[C@@H](C)CC)[C@@H](C)CC)C(=O)N[C@@H](CSSC[C@H](NC(=O)[C@H](CCCCNC(=O)CCOCCOCCOCCOCCOCCOCCNC(=O)[C@H](CCCCN)NC(=O)[C@H](CC(C)C)NC(=O)[C@H](Cc1ccc(O)cc1)NC(=O)[C@@H](NC(=O)[C@H](CCSC)NC(=O)[C@H](C)NC(=O)CNC(=O)[C@H](Cc1c[nH]cn1)NC(=O)[C@@H](N)CCCNC(=N)N)C(C)C)NC(=O)CCOCCOCCOCCOCCOCCOCCNC(=O)[C@H](CCCCN)NC(=O)[C@H](CC(C)C)NC(=O)[C@H](Cc1ccc(O)cc1)NC(=O)[C@@H](NC(=O)[C@H](CCSC)NC(=O)[C@H](C)NC(=O)CNC(=O)[C@H](Cc1c[nH]cn1)NC(=O)[C@@H](N)CCCNC(=N)N)C(C)C)C(=O)O)C(=O)O [AGM-330d-dCPP]	4.21 µM	5.47 µM	–	–	–	–	–	–	–
CSCC[C@H](NC(=O)[C@H](C)NC(=O)CNC(=O)[C@H](Cc1c[nH]cn1)NC(=O)[C@@H](N)CCCNC(=N)N)C(=O)N[C@H](C(=O)N[C@@H](Cc1ccc(O)cc1)C(=O)N[C@@H](CC(C)C)C(=O)N[C@@H](CCCCN)C(=O)NCCOCCOCCOCCOCCOCCOCCOCCOCCOCCOCCOCCOCCC(=O)NCCCC[C@H](NC(=O)CCOCCOCCOCCOCCOCCOCCOCCOCCOCCOCCOCCOCCNC(=O)[C@H](CCCCN)NC(=O)[C@H](CC(C)C)NC(=O)[C@H](Cc1ccc(O)cc1)NC(=O)[C@@H](NC(=O)[C@H](CCSC)NC(=O)[C@H](C)NC(=O)CNC(=O)[C@H](Cc1c[nH]cn1)NC(=O)[C@@H](N)CCCNC(=N)N)C(C)C)C(=O)NCCCC[C@H](NC(=O)[C@H](CCCCNC(=O)CCOCCOCCOCCOCCOCCOCCOCCOCCOCCOCCOCCOCCNC(=O)[C@H](CCCCN)NC(=O)[C@H](CC(C)C)NC(=O)[C@H](Cc1ccc(O)cc1)NC(=O)[C@@H](NC(=O)[C@H](CCSC)NC(=O)[C@H](C)NC(=O)CNC(=O)[C@H](Cc1c[nH]cn1)NC(=O)[C@@H](N)CCCNC(=N)N)C(C)C)NC(=O)CCOCCOCCOCCOCCOCCOCCOCCOCCOCCOCCOCCOCCNC(=O)[C@H](CCCCN)NC(=O)[C@H](CC(C)C)NC(=O)[C@H](Cc1ccc(O)cc1)NC(=O)[C@@H](NC(=O)[C@H](CCSC)NC(=O)[C@H](C)NC(=O)CNC(=O)[C@H](Cc1c[nH]cn1)NC(=O)[C@@H](N)CCCNC(=N)N)C(C)C)C(=O)N[C@@H](CSC1CC(=O)N(CCC(=O)O[C@@H](C(=O)O[C@H]2C[C@@]3(O)[C@@H](OC(=O)c4ccccc4)[C@@H]4[C@]5(OC(C)=O)CO[C@@H]5C[C@H](O)[C@@]4(C)C(=O)[C@H](OC(C)=O)C(=C2C)C3(C)C)[C@@H](NC(=O)c2ccccc2)c2ccccc2)C1=O)C(=O)O)C(C)C (stereo partly drawn) [AGM-330t-PTX]	–	–	807±90 mm^3	approximately 52%	1.3 ± 0.1 g	increase in apoptotic cell nuclei	reduction in the number of cancerous cells	not affected	no adverse signs of toxicity
